# Source: PMC10364322, “Evaluation of chronic drug-induced electrophysiological and cytotoxic effects using human-induced pluripotent stem cell-derived cardiomyocytes (hiPSC-CMs)” (Frontiers in Pharmacology, 2023)
# Where two headings read alike, the source gives them in different places.
# Tested on: hiPSC-CMs (iCell-Cardiomyocytes^2)
# How it was run: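 Spontaneous field potentials and impedance recorded by MEA at 37°C, 5% CO2 in hiPSC-CM monolayers (50 K/well, fibronectin-coated), 5-min baseline before compound; final DMSO 0.1%. Values are percent change from baseline, mean ± SD, compared with DMSO by Wilcoxon-Mann Whitney, interpreted against DMSO tolerance intervals.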
smiles,measurement,setting,value
CCN(CC)CCNC(=O)c1c(C)[nH]c(/C=C2\C(=O)Nc3ccc(F)cc32)c1C [Sunitinib],"BR (beating rate), % change from baseline","0.03 µM, 2h",0±2%
same,"FPD (field-potential duration), % change from baseline","0.03 µM, 2h",5.5±1.5%
same,"FPDc (field-potential duration corrected by beat-rate), % change from baseline","0.03 µM, 2h",5.3±1.7%
same,"BR (beating rate), % change from baseline","0.03 µM, 24h",-2±3%
same,"FPD (field-potential duration), % change from baseline","0.03 µM, 24h",11±4.2%
same,"FPDc (field-potential duration corrected by beat-rate), % change from baseline","0.03 µM, 24h",10.1±3.1%
same,"BR (beating rate), % change from baseline","0.03 µM, 48h",-13±2%
same,"FPD (field-potential duration), % change from baseline","0.03 µM, 48h",20.5±2.7%
same,"FPDc (field-potential duration corrected by beat-rate), % change from baseline","0.03 µM, 48h",14.9±1.9 %
same,"BR (beating rate), % change from baseline","0.03 µM, 72h",-10±2%
same,"FPD (field-potential duration), % change from baseline","0.03 µM, 72h",19.2±2%
same,"FPDc (field-potential duration corrected by beat-rate), % change from baseline","0.03 µM, 72h",15±1.8%
same,"BR (beating rate), % change from baseline","0.03 µM, 96h",-18±1%
same,"FPD (field-potential duration), % change from baseline","0.03 µM, 96h",27.4±1.8%
same,"FPDc (field-potential duration corrected by beat-rate), % change from baseline","0.03 µM, 96h",19.3±1.7%
same,"BR (beating rate), % change from baseline","0.1 µM, 2h",-5±1%
same,"FPD (field-potential duration), % change from baseline","0.1 µM, 2h",12.2±1.2 %
same,"FPDc (field-potential duration corrected by beat-rate), % change from baseline","0.1 µM, 2h",10.3±1 %
same,"BR (beating rate), % change from baseline","0.1 µM, 24h",-8±4%
same,"FPD (field-potential duration), % change from baseline","0.1 µM, 24h",25.6±6.7 %
same,"FPDc (field-potential duration corrected by beat-rate), % change from baseline","0.1 µM, 24h",21.9±5 %
same,"BR (beating rate), % change from baseline","0.1 µM, 48h",-19±2 %
same,"FPD (field-potential duration), % change from baseline","0.1 µM, 48h",35.8±4.6 %
same,"FPDc (field-potential duration corrected by beat-rate), % change from baseline","0.1 µM, 48h",26.3±3.6 %
same,"BR (beating rate), % change from baseline","0.1 µM, 72h",-17±2 %
same,"FPD (field-potential duration), % change from baseline","0.1 µM, 72h",36.3±3.3 %
same,"FPDc (field-potential duration corrected by beat-rate), % change from baseline","0.1 µM, 72h",28.2±2.6 %
same,"BR (beating rate), % change from baseline","0.1 µM, 96h",-24±1%
same,"FPD (field-potential duration), % change from baseline","0.1 µM, 96h",49±7.7 %
same,"FPDc (field-potential duration corrected by beat-rate), % change from baseline","0.1 µM, 96h",36.1±6.4 %
same,time point from which EAD-like events occurred,0.3 µM,24 h
same,"BR (beating rate), % change from baseline","0.3 µM, 2h",-15±2 %
same,"FPD (field-potential duration), % change from baseline","0.3 µM, 2h",32.5±1.7 %
same,"FPDc (field-potential duration corrected by beat-rate), % change from baseline","0.3 µM, 2h",25.4±1.4 %
same,"BR (beating rate), % change from baseline","0.3 µM, 24h",-29±5 %
same,"FPD (field-potential duration), % change from baseline","0.3 µM, 24h",103.1±24.2 %
same,"FPDc (field-potential duration corrected by beat-rate), % change from baseline","0.3 µM, 24h",80.7±18.4 %
same,"BR (beating rate), % change from baseline","0.3 µM, 48h",-39±4 %
same,"FPD (field-potential duration), % change from baseline","0.3 µM, 48h",120.5±24.7 %
same,"FPDc (field-potential duration corrected by beat-rate), % change from baseline","0.3 µM, 48h",87.2±17.5 %
same,"BR (beating rate), % change from baseline","0.3 µM, 72h",-38±1 %
same,"FPD (field-potential duration), % change from baseline","0.3 µM, 72h",135.9±4.7 %
same,"FPDc (field-potential duration corrected by beat-rate), % change from baseline","0.3 µM, 72h",101±3.5 %
same,"BR (beating rate), % change from baseline","0.3 µM, 96h",-44±2 %
same,"FPD (field-potential duration), % change from baseline","0.3 µM, 96h",152.4±12.3 %
same,"FPDc (field-potential duration corrected by beat-rate), % change from baseline","0.3 µM, 96h",108.1±8 %
same,"BR (beating rate), % change from baseline","1 µM, 2h",-49±4 %
same,"FPD (field-potential duration), % change from baseline","1 µM, 2h",182.8±8.5 %
same,"FPDc (field-potential duration corrected by beat-rate), % change from baseline","1 µM, 2h",128.9±4.9 %
same,"BR (beating rate), % change from baseline","1 µM, 24h",-67±3 %
same,"BR (beating rate), % change from baseline","1 µM, 48h",-68±4 %
same,"BR (beating rate), % change from baseline","1 µM, 72h",-70±0 %
C[C@H](CS)C(=O)N1CCC[C@H]1C(=O)O [Captopril],"BR (beating rate), % change from baseline","1 µM, 2h",4±4%
same,"FPD (field-potential duration), % change from baseline","1 µM, 2h",0±2.5%
same,"FPDc (field-potential duration corrected by beat-rate), % change from baseline","1 µM, 2h",0.8±1.8%
same,"BR (beating rate), % change from baseline","1 µM, 24h",1±5%
same,"FPD (field-potential duration), % change from baseline","1 µM, 24h",5±5.9%
same,"FPDc (field-potential duration corrected by beat-rate), % change from baseline","1 µM, 24h",5.1±4.4%
same,"BR (beating rate), % change from baseline","1 µM, 48h",-7±4%
same,"FPD (field-potential duration), % change from baseline","1 µM, 48h",11.5±3.8%
same,"FPDc (field-potential duration corrected by beat-rate), % change from baseline","1 µM, 48h",8.8±2.5%
same,"BR (beating rate), % change from baseline","1 µM, 72h",-10±1%
same,"FPD (field-potential duration), % change from baseline","1 µM, 72h",16±2.7%
same,"FPDc (field-potential duration corrected by beat-rate), % change from baseline","1 µM, 72h",11.9±2.1%
same,"BR (beating rate), % change from baseline","1 µM, 96h",-15±4%
same,"FPD (field-potential duration), % change from baseline","1 µM, 96h",22±4.6%
same,"FPDc (field-potential duration corrected by beat-rate), % change from baseline","1 µM, 96h",15.1±3%
same,"BR (beating rate), % change from baseline","3 µM, 72h",-9±1%
same,"FPD (field-potential duration), % change from baseline","3 µM, 72h",12±0.8%
same,"FPDc (field-potential duration corrected by beat-rate), % change from baseline","3 µM, 72h",8.6±0.6%
same,"BR (beating rate), % change from baseline","3 µM, 96h",-18±2%
same,"FPD (field-potential duration), % change from baseline","3 µM, 96h",20.9±1.6%
same,"FPDc (field-potential duration corrected by beat-rate), % change from baseline","3 µM, 96h",13.5±1.6%
same,"BR (beating rate), % change from baseline","3 µM, 2h",2±2%
same,"FPD (field-potential duration), % change from baseline","3 µM, 2h",0.3±1.9%
same,"FPDc (field-potential duration corrected by beat-rate), % change from baseline","3 µM, 2h",1.1±1.6%
same,"BR (beating rate), % change from baseline","3 µM, 24h",1±3%
same,"FPD (field-potential duration), % change from baseline","3 µM, 24h",4.3±0.8%
same,"FPDc (field-potential duration corrected by beat-rate), % change from baseline","3 µM, 24h",4.6±1.6%
same,"BR (beating rate), % change from baseline","3 µM, 48h",-7±2%
same,"FPD (field-potential duration), % change from baseline","3 µM, 48h",10.9±2.8%
same,"FPDc (field-potential duration corrected by beat-rate), % change from baseline","3 µM, 48h",8.2±1.8%
same,"BR (beating rate), % change from baseline","10 µM, 2h",2±2%
same,"FPD (field-potential duration), % change from baseline","10 µM, 2h",0.3±1.7%
same,"FPDc (field-potential duration corrected by beat-rate), % change from baseline","10 µM, 2h",1±1.6%
same,"BR (beating rate), % change from baseline","10 µM, 24h",1±3%
same,"FPD (field-potential duration), % change from baseline","10 µM, 24h",5.3±3.7%
same,"FPDc (field-potential duration corrected by beat-rate), % change from baseline","10 µM, 24h",5.7±2.8%
same,"BR (beating rate), % change from baseline","10 µM, 48h",-7±3%
same,"FPD (field-potential duration), % change from baseline","10 µM, 48h",13.1±5.3%
same,"FPDc (field-potential duration corrected by beat-rate), % change from baseline","10 µM, 48h",10.3±4.5%
same,"BR (beating rate), % change from baseline","10 µM, 72h",-10±1%
same,"FPD (field-potential duration), % change from baseline","10 µM, 72h",14.8±5.3%
same,"FPDc (field-potential duration corrected by beat-rate), % change from baseline","10 µM, 72h",11.2±4.9%
same,"BR (beating rate), % change from baseline","10 µM, 96h",-17±1%
same,"FPD (field-potential duration), % change from baseline","10 µM, 96h",23.4±6.5%
same,"FPDc (field-potential duration corrected by beat-rate), % change from baseline","10 µM, 96h",16±5.7%
same,"BR (beating rate), % change from baseline","30 µM, 2h",2±3%
same,"FPD (field-potential duration), % change from baseline","30 µM, 2h",3.4±1.3%
same,"FPDc (field-potential duration corrected by beat-rate), % change from baseline","30 µM, 2h",4±1.3%
same,"BR (beating rate), % change from baseline","30 µM, 24h",1±3%
same,"FPD (field-potential duration), % change from baseline","30 µM, 24h",7.4±4.1%
same,"FPDc (field-potential duration corrected by beat-rate), % change from baseline","30 µM, 24h",7.7±2.9%
same,"BR (beating rate), % change from baseline","30 µM, 48h",-7±1%
same,"FPD (field-potential duration), % change from baseline","30 µM, 48h",13.9±3.1%
same,"FPDc (field-potential duration corrected by beat-rate), % change from baseline","30 µM, 48h",11.4±2.7%
same,"BR (beating rate), % change from baseline","30 µM, 72h",-9±2%
same,"FPD (field-potential duration), % change from baseline","30 µM, 72h",15.6±2%
same,"FPDc (field-potential duration corrected by beat-rate), % change from baseline","30 µM, 72h",12.1±2.1%
same,"BR (beating rate), % change from baseline","30 µM, 96h",-16±2%
same,"FPD (field-potential duration), % change from baseline","30 µM, 96h",23.3±2.4%
same,"FPDc (field-potential duration corrected by beat-rate), % change from baseline","30 µM, 96h",16±2.1%
same,"cessation of beating, flat T-wave or arrhythmic-like events","all concentrations tested, up to 96 h","no cessation of beating, flat T-wave or arrhythmic-like events were detected"
